Where two headings read alike, the source gives them in different places.
How the values were obtained:
[1] = target: T1, AmpC β-lactamase (Escherichia coli, UniProt P00811); test: biochemical; conditions: for fold more potent than the lead compound lacking the m.carboxyphenyl side chain: 15 versus 1, 16 versus 4
T1 construct: made in house
Procedure: Enzymology. The phenylglycylboronic acids of the preceding examples were dissolved in DMSO at a concentration of 50 mM; more dilute stocks (10 mM to 1 μM) were subsequently prepared as necessary. Kinetic measurements were performed using nitrocefin as substrate in 50 mM Tris buffer, pH 7.0 and monitored in an HP8453 UV/Vis spectrophotometer. The concentration of AmpC was determined spectrophotometrically in stock solutions made from lyophilized powder; this enzyme had been previously expressed and purified. Usher, K. C., Blaszczak, L. C., Weston, G. S., Shoichet, B. K. and Remington, S. J. Biochemistry 1998, 37, 16082-16092. […] To determine K, values, inhibitor and enzyme were incubated together at their final concentration in the cuvettes for five minutes before the reaction was initiated by the addition of 200 μM substrate. […] Waley, S. G. Biochem. J. 1982, 205 631-633. […] In all reactions, rates were measured after reactions had overcome their initial lag phase and had reached a steady state.
(§1) Mutant Enzymology. The glycylboronic acids were dissolved in DMSO at a concentration of 50 mM; more dilute stocks were subsequently prepared as necessary. Kinetic measurements were performed using nitrocefin as a substrate in 50 mM Tris buffer, pH 7.0, and monitored at 480 nm in an HP9453 UV-vis spectrophotometer. To prevent overestimation of inhibition due to sequestration of the enzyme on the walls of the cuvette during the reaction, 0.1% BSA was added to the buffer in all reactions. […] To determine Ki values, inhibitor and enzyme were incubated together in the cuvettes for 5 min before reaction was initiated by the addition of substrate. 200 μM nitrocefin was used for the reactions with L119A and L293A, whereas 400 μM nitrocefin was used for the reactions with N289A to shorten the lag phase of the reaction. For the reactions with N289A, rates were calculated from the later portions of the curve, once the reactions had achieved steady state. These rates were compared with portions of the uninhibited curves that corresponded to the same range of substrate concentrations.

[2] = target: T2, AmpC N289A (Escherichia coli, UniProt P00811, N305A); test: biochemical; format: biochemical
T2 construct: made in house
Procedure: (§2) Enzyme mutagenesis and preparation. Mutants of AmpC were created using the overlap extension polymerase chain reaction (23). Mutant enzymes were expressed as described. AmpC N289A and L293A were purified on an m-aminophenylboronic acid affinity column. AmpC L119A was purified on an S-Sepharose ion-exchange column. The purified enzymes were concentrated using Centricon spin concentrators.
as §1

[3] = target: T3, AmpC L119A (Escherichia coli, UniProt P00811, L135A); test: biochemical; format: biochemical
T3 construct: made in house
Procedure: as §2, §1

[4] = target: T4, AmpC L293A (Escherichia coli, UniProt P00811, L309A); test: biochemical; format: biochemical
T4 construct: made in house
Procedure: as §2, §1

[5] = tested on: eight clinically isolated bacterial pathogens producing class C β-lactamases; format: cell-based; conditions: against all strains
Procedure: Microbiology. Compounds 16 and 21 were tested for synergy with the β-lactam ceftazidime against pathogenic bacteria from clinical isolates at the Hospital Ramón y Cajal; these bacteria were resistant to β-lactams due to expression of a class C β-lactamase. […] Minimum inhibitor concentration (MIC) values were determined with Mueller-Hinton Broth II using the microdilution method according to NCCLS guidelines. National Committee for Clinical Laboratory Standards, Methods for dilution antimicrobial susceptibility test for bacteria that grow aerobically. Approved Standard M7-A4, 1997, vol. 17, National Committee for Clinical Laboratory Standards, Villanova, Pa.

[6] = target: α-chymotrypsin (bovine pancreatic) (Bos taurus, UniProt P00766); test: biochemical; conditions: for selectivity for AmpC over α-chymotrypsin: ratio of IC50 values
Procedure: (§3) Selectivity. The selectivity of compounds 16 and 21 was tested by determining their activity against the serine proteases α-chymotrypsin (bovine pancreatic), β-trypsin (bovine pancreatic), and elastase (porcine pancreatic), all from Sigma (St. Louis, Mo.). The substrates for α-chymotrypsin (succinyl-ala-ala-pro-phe-p-nitroanilide) and β-trypsin (N-benzoyl-L-arginine ethyl ester) were also purchased from Sigma. The elastase substrate (MeOSuc-Ala-Ala-Pro-Val-pNA) was purchased from Calbiochem (San Diego, Calif.). Substrates were diluted from 20 mM DMSO stock solutions, and all reactions were performed in 50 mM Tris buffer, pH 7.0, 25° C. For α-chymotrypsin, 0.001 mg/ml of enzyme and the inhibitor at its final concentration were incubated in the cuvette for five minutes before the reaction was initiated by the addition of 200 μM of substrate. The reaction was monitored at 410 nm. For β-trypsin, 0.004 mg/ml of enzyme and the inhibitor at its final concentration were incubated in the cuvette for five minutes before the reaction was initiated by the addition of 200 μM of substrate. The reaction was monitored at 253 nm. For elastase, 0.006 mg/ml of enzyme and the inhibitor at its final concentration were incubated in the cuvette for five minutes before the reaction was initiated by the addition of 640 μM of substrate. The reaction was monitored at 385 nm. Initial rate fits to the absorbance data for the first 100 seconds were used to determine reaction velocities.

[7] = target: elastase (porcine pancreatic) (Sus scrofa, UniProt P00772); test: biochemical; conditions: for selectivity for AmpC over elastase: ratio of IC50 values
Procedure: as §3

[8] = target: β-trypsin (bovine pancreatic) (Bos taurus, UniProt P00760); test: Selectivity: serine protease β-trypsin; format: biochemical; conditions: 50 mM Tris pH 7.0, 25° C.
Excerpt: Selectivity. […] The reaction was monitored at 410 nm. […] The reaction was monitored at 253 nm. […] The reaction was monitored at 385 nm.

[9] = tested on: P. aeruginosa JMSMA7; test: MIC, synergy with ceftazidime, microdilution; format: cell-based; conditions: Pseudomonas aeruginosa, P. aeruginosa 2, ceftazidime to inhibitor 1:1 in combinations
Procedure: (§4) Microbiology. Compounds 16 and 21 were tested for synergy with the β-lactam ceftazidime against pathogenic bacteria from clinical isolates at the Hospital Ramón y Cajal; these bacteria were resistant to β-lactams due to expression of a class C β-lactamase. Strains of bacteria tested were: Citrobacter freundii mut756-CAZ, Escherichia coli 72929 Hip, E. coli 4774 Hip (Table 4, E. coli 1 and 2, respectively), Enterobacter cloacae 72527 ED, E. cloacae 8411 CAZ-R clon7, E. cloacae 12991 ED (Table 4, E. cloacae 1, 2, and 3, respectively), Pseudomonas aeruginosa 279/88, and P. aeruginosa JMSMA7 (Table 4, P. aeruginosa 1 and 2, respectively). Minimum inhibitor concentration (MIC) values were determined with Mueller-Hinton Broth II using the microdilution method according to NCCLS guidelines. National Committee for Clinical Laboratory Standards, Methods for dilution antimicrobial susceptibility test for bacteria that grow aerobically. Approved Standard M7-A4, 1997, vol. 17, National Committee for Clinical Laboratory Standards, Villanova, Pa.

[10] = tested on: Escherichia coli 72929 Hip; test: MIC, synergy with ceftazidime, microdilution; format: cell-based; conditions: E. coli 1, ceftazidime to inhibitor 1:1 in combinations
Procedure: as §4

[11] = target: T1, AmpC β-lactamase; conditions: glycylboronic acid previously found, no buffer footnote; cited from earlier work
[12] = differential free energy of binding relative to compound 1, 298 K, positive = improved affinity

T4 sequence (P00811 20-377 L309A): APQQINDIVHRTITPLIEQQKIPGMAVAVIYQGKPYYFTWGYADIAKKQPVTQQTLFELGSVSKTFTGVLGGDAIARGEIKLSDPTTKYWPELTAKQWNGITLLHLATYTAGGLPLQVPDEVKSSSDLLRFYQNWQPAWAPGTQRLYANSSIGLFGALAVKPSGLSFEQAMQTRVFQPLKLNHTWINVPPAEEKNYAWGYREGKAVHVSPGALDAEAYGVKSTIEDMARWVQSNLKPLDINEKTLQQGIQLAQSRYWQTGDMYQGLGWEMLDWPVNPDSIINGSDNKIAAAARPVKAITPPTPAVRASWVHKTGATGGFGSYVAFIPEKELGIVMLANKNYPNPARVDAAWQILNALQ
T3 sequence (P00811 20-377 L135A): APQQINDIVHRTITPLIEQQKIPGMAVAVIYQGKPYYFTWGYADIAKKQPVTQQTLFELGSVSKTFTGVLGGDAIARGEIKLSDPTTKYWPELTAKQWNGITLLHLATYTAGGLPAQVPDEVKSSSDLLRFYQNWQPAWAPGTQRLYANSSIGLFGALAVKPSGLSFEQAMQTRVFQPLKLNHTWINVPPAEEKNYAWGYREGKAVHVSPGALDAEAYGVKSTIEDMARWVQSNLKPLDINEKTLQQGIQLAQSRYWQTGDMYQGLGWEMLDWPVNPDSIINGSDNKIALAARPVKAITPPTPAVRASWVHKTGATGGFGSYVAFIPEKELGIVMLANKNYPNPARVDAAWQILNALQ
T1 sequence (P00811 20-377): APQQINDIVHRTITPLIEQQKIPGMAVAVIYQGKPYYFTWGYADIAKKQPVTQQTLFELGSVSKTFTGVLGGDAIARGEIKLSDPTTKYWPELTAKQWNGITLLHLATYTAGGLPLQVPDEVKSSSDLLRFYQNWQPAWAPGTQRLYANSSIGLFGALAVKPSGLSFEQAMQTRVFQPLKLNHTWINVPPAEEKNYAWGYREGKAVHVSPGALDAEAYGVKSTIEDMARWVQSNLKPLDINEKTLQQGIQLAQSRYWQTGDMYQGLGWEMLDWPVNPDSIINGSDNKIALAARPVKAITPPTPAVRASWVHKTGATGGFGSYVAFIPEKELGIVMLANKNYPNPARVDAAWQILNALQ
Chain of elastase (porcine pancreatic) (P00772 27-266): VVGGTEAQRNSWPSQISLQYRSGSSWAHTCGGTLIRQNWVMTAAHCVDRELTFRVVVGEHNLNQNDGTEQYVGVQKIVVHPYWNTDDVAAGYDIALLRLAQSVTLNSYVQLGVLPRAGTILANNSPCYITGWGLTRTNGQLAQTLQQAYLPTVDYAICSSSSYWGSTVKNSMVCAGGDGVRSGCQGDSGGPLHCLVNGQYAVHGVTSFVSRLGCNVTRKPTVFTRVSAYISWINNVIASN
T2 sequence (P00811 20-377 N305A): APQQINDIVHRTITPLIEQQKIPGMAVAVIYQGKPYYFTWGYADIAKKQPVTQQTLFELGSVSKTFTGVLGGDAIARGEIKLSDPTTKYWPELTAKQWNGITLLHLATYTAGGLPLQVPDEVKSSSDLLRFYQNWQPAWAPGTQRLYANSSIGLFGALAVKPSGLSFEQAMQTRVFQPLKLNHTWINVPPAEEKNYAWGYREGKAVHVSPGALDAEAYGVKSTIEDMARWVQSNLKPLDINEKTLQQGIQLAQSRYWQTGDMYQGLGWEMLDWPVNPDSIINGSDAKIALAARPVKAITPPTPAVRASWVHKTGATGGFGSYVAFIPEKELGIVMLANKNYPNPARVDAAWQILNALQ
Chain of β-trypsin (bovine pancreatic) (P00760 24-246): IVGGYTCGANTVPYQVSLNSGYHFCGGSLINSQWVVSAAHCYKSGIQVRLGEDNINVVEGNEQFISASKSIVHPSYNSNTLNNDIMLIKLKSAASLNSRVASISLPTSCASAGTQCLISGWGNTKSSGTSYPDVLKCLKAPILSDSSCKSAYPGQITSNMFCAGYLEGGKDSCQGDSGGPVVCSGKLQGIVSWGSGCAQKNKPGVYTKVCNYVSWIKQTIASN

CC(=O)NCB(O)O [Compound 1, reference compound]
ΔΔG from 1 [1, 12]: 0.00 kcal/mol

O=C(Cc1cccs1)N[C@H](B(O)O)c1ccccc1 [Compound 21, (1R)-1-(2-thienylacetylamino)-1-phenylmethylboronic acid]
IC50 [1]: 0.09 µM
Ki [1]: 0.035 µM
ΔΔG from 1 [1, 12]: 3.71 kcal/mol
fold less active than compound 16 ([1]; wild-type AmpC): 35 fold
Ki [2]: 0.037 µM
fall in affinity relative to the affinity of 16 for the mutant ([2]; AmpC N289A): 2 fold
Ki [3]: 0.012 µM
ΔΔΔG, interaction between the inhibitor phenyl ring and Leu119 ([3]; thermodynamic cycle, WT AmpC / L119A, L=21, L′=4, negative = unfavorable): -1.4 kcal/mol
Ki [4]: 0.521 µM
ΔΔΔG, interaction between the inhibitor phenyl ring and Leu293 ([4]; thermodynamic cycle, WT AmpC / L293A, L=21, L′=4, negative = unfavorable): -0.5 kcal/mol
reduction of affinity by the L293→Ala substitution ([4]; versus wild-type AmpC): 1.6 kcal/mol
synergy with ceftazidime [5]: showed synergy
melting point: 90 to 100 °C
IC50 [6]: 6 µM
selectivity for AmpC over α-chymotrypsin [6]: 60 fold
IC50 [7]: 128 µM
selectivity for AmpC over elastase [7]: 1,400 fold
IC50 [8]: > 1000 µM

O=C(Cc1cccs1)N[C@@H]1C(=O)N2C(C(=O)O)=C(/C=C/c3ccc([N+](=O)[O-])cc3[N+](=O)[O-])CS[C@H]12 [nitrocefin, reference compound]
Km ([2]; read-out: KM of nitrocefin, N289A): 27 µM
Km ([4]; read-out: KM of nitrocefin, L293A): 33 µM

CC(=O)N[C@H](B(O)O)c1cccc(C(=O)O)c1 [Compound 15, (1R)-1-acetylamino-1-(3-carboxyphenyl)methylboronic acid]
Ki [1]: 0.13 µM
fold more potent than the lead compound lacking the m.carboxyphenyl side chain [1]: 150 fold
ΔΔG from 1 [1, 12]: 2.95 kcal/mol

O=C(Cc1cccs1)NCB(O)O [Compound 4, reference compound]
Ki [1]: 0.186 µM
Ki [3]: 0.676 µM
Ki [4]: 6.2 µM

CC1(C)C2CC3OB([C@@H](NC(=O)Cc4cccs4)c4cccc(C=O)c4)O[C@@]3(C)C1C2 (single isomer, unassigned; (+)) [Compound 26]
Ki [1]: 0.015 µM
Ki [2]: 0.018 µM

O=C(Cc1cccs1)N[C@H](B(O)O)c1cccc(C(=O)O)c1 [Compound 16, (1R)-1-(2-thienylacetylamino)-1-(3-carboxyphenyl)methylboronic acid]
IC50 [1]: 0.0026 µM
Ki [1]: 0.001 µM
type of inhibition of AmpC [1]: time-dependent inhibition
Ki ([1]; 50 mM Tris pH 7.0, 200 μM nitrocefin, 5 min incubation): 0.001 µM
fold more potent than the lead compound lacking the m.carboxyphenyl side chain [1]: 300 fold
ΔΔG from 1 [1, 12]: 5.82 kcal/mol
improvement of binding energy by addition of the m.carboxyphenyl side chain ([1]; versus lead lacking the side chain): 3.4 kcal/mol
Ki [2]: 0.017 µM
reduction of affinity by the N289A substitution versus the wild-type enzyme [2]: 17 fold
ΔΔΔG, hydrogen bond energy between Asn289 and the inhibitor group ([2]; thermodynamic cycle, WT AmpC / N289A, mutant ligand 21): 1.7 kcal/mol
synergy with ceftazidime [5]: showed synergy
IC50 [6]: 150 µM
selectivity for AmpC over α-chymotrypsin [6]: 57,000 fold
IC50 [7]: 500 µM
selectivity for AmpC over elastase [7]: 190,000 fold
IC50 [8]: > 1000 µM

CC(C)(O/N=C(\C(=O)N[C@@H]1C(=O)N2C(C(=O)[O-])=C(C[n+]3ccccc3)CS[C@H]12)c1csc(N)n1)C(=O)O [CAZ, ceftazidime]
MIC [9]: 64 µg/mL
MIC [10]: 32 µg/mL

Cc1onc(-c2ccccc2Cl)c1C(=O)N[C@H](B(O)O)c1cccc(C(=O)O)c1 [Compound 17, (1R)-1-{[3-(2-Chlorophenyl)-5-methyl-isoxazole-4-carbonyl]-amino}-1-(3-carboxyphenyl)methylboronic acid]
Ki [1]: 5.7 µM
binding energy made worse by addition of the m.carboxyphenyl group ([1]; 17 versus 2): about 2 kcal/mol
fold less potent (higher Ki) than compound 2 lacking the m.carboxyphenyl group ([1]; 17 versus 2): 40 fold
ΔΔG from 1 [1, 12]: 0.70 kcal/mol
melting point: 180 to 190 °C

CC(C)(O/N=C(\C(=O)NCB(O)O)c1csc(N)n1)C(=O)O [Compound 3, reference compound]
ΔΔG from 1 (kcal/mol) [1, 12]: 4.04 — kcal/mol
Ki [11]: 0.02 µM

— patent publication US7928129B1, “Nanomolar β-lactamase inhibitors” (Northwestern University, priority 2002, dated 2011)
